From PubChem BioAssay (NCI)
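1) Cells in 96-well plates. 2) Compound, 48 h, 5 concentrations. 3) Linear interpolation between surrounding doses. 4) Unreached endpoint = highest concentration. GI50 = concentration required for 50% inhibition of growth. Definition used: TGI = concentration required for complete inhibition of growth.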

Experiments:
Experiment in all cases: inhibition of tumour cell growth, NCI panel, 48 h
SF-268 CNS = test system: SF-268 CNS
UACC-62 melanoma = test system: UACC-62 melanoma
SK-OV-3 ovarian = test system: SK-OV-3 ovarian
HL-60(TB) leukemia = test system: HL-60(TB) leukemia
PC-3 prostate = test system: PC-3 prostate
CAKI-1 renal = test system: CAKI-1 renal
NCI-H522 lung = test system: NCI-H522 lung
NCI-H226 lung = test system: NCI-H226 lung
UO-31 renal = test system: UO-31 renal
A498 renal = test system: A498 renal

| Compound | GI50 (SF-268 CNS) | TGI (SF-268 CNS) | GI50 (UACC-62 melanoma) | TGI (UACC-62 melanoma) | GI50 (SK-OV-3 ovarian) | TGI (SK-OV-3 ovarian) | GI50 (HL-60(TB) leukemia) | TGI (HL-60(TB) leukemia) | GI50 (PC-3 prostate) | TGI (PC-3 prostate) | GI50 (CAKI-1 renal) | TGI (CAKI-1 renal) | GI50 (NCI-H522 lung) | TGI (NCI-H522 lung) | GI50 (NCI-H226 lung) | TGI (NCI-H226 lung) | GI50 (UO-31 renal) | TGI (UO-31 renal) | GI50 (A498 renal) | TGI (A498 renal) |
| --- | --- | --- | --- | --- | --- | --- | --- | --- | --- | --- | --- | --- | --- | --- | --- | --- | --- | --- | --- | --- |
| CC[N+](CC)(CC)CCCn1c2c(c3ccccc3c1=O)C(=O)c1ccccc1-2 | 3.42 µM | 24.4 µM | 9.31 µM | 29.3 µM | 52.6 µM | > 100 µM | 58.6 µM | > 100 µM | 9.13 µM | 69.1 µM | 3.74 µM | 30.9 µM | 4.71 µM | 21.4 µM |  |  |  |  |  |  |
| O=C([CH-]C(=O)c1ccccc1)c1ccccc1.O=C([CH-]C(=O)c1ccccc1)c1ccccc1.[Nd+3].[OH-].[OH3+] | 6.51 µM | 34.9 µM | 4.76 µM | 22.2 µM | 14.5 µM | 48.2 µM | 1.8 µM | 8.17 µM |  |  | 13.6 µM | 40.9 µM | 1.42 µM | 13.3 µM | 1.94 µM | 8.28 µM | 3.11 µM | 12.4 µM | 11 µM | 39.6 µM |
| O=C(Oc1ccc(CCl)cc1)c1ccccc1 | 0.17 µM | 0.326 µM | 0.164 µM | 0.361 µM | 0.386 µM | 1.42 µM |  |  | 0.15 µM | 0.332 µM | 0.16 µM | 0.303 µM | 0.154 µM | 0.316 µM | 0.185 µM | 0.437 µM | 0.173 µM | 0.319 µM | 0.221 µM | 1.83 µM |
| C=C1CC[C@@H]2C(C)(C)CCC[C@@]2(C)[C@@H]1Cc1cc(O)ccc1O |  | 12.9 µM |  | 22.8 µM |  | 6.04 µM |  | 4.67 µM |  |  |  | 22.2 µM |  | 3.66 µM |  | 7.09 µM |  | 5.25 µM |  | 27.6 µM |
| OCCCCC#Cc1ccccc1C#Cc1ccccc1C(F)(F)F | 17.4 µM | 33.7 µM | 11.3 µM | 23.5 µM | 17.7 µM | 32.7 µM |  |  | 8.77 µM | 21 µM | 5.37 µM | 17.9 µM | 9.13 µM | 22.7 µM | 16.7 µM | 44.4 µM | 11.8 µM | 24.1 µM | 5.79 µM | 19.8 µM |
| COc1ccc2ccc([Se]c3ccc4ccc(OC)cc4c3)cc2c1 |  | > 100 µM |  | > 100 µM |  | > 100 µM |  | > 100 µM |  |  |  | > 100 µM |  | > 100 µM |  | > 100 µM |  | 95.8 µM |  | > 100 µM |
| O=C(Nc1ccc(Cl)cc1)c1cc2ccccc2cc1O | 3.68 µM | > 100 µM | 0.899 µM | > 100 µM | 1.91 µM | 9.61 µM | 2.7 µM | 7.91 µM | 2.99 µM | > 100 µM |  |  | 1.25 µM | 6.88 µM | 2.59 µM | 82.2 µM | 2.03 µM | > 100 µM | 2.23 µM | 8.37 µM |
| Cc1c2cc[nH]c(=O)c2cc2c(=O)c3cnccc3[nH]c12 |  | > 100 µM |  | > 100 µM |  | > 100 µM |  | > 100 µM |  |  |  | > 100 µM |  | > 100 µM |  | > 100 µM |  | > 100 µM |  | > 100 µM |
| COC(=O)C(Nc1ccc(OC)cc1)c1ccccc1 (configuration not stated) |  | > 100 µM |  | > 100 µM |  |  |  |  |  | > 100 µM |  | > 100 µM |  | > 100 µM |  |  |  | > 100 µM |  |  |
| Nc1ccccc1C#C/C=C\C#Cc1ccc(Cl)cc1Cl | 4.38 µM | 23.7 µM | 14.5 µM | 31.7 µM | 27.8 µM | 80.5 µM |  |  | 9.04 µM | 42.1 µM | 3.38 µM | 13.5 µM | 14.7 µM | 35.4 µM | 19.2 µM | 39.5 µM | 14.2 µM | 40 µM | 12.6 µM | 27 µM |
| O=S1(=O)C[C@@H](O)[C@H](O)CS1 |  | > 100 µM |  | > 100 µM |  | > 100 µM |  | > 100 µM |  |  |  | > 100 µM |  | > 100 µM |  | > 100 µM |  | > 100 µM |  | > 100 µM |
| CC(=O)OCC1OC(n2c(=O)n(-c3ccccc3)c(=O)c3ccccc32)C(OC(C)=O)C(OC(C)=O)C1OC(C)=O (configuration not stated) |  | > 100 µM |  | > 100 µM |  | > 100 µM |  | > 100 µM |  |  |  | > 100 µM |  | > 100 µM |  | > 100 µM |  | > 100 µM |  | > 100 µM |
| C=C1C(=O)OC2CC3(CO3)C3C(O)C(O)CC3(C)CC12 (configuration not stated) |  | > 100 µM |  | 38 µM |  | > 100 µM |  | 44.6 µM |  | > 100 µM |  | 36.6 µM |  | 27.9 µM |  | > 100 µM |  |  |  | 64.2 µM |
| COc1ccc(-c2nc(-c3ccccc3)c(-c3ccccc3)n2C2CC2)cc1OC1CCCC1 | 44.9 µM | > 165 µM |  |  | > 165 µM | > 165 µM | 28.3 µM | 141 µM | 22.6 µM | > 165 µM | 50.2 µM | > 165 µM | 62.1 µM | > 165 µM | 83.7 µM | > 165 µM | 64.6 µM | > 165 µM | 9.57 µM | > 165 µM |
| Nc1c(-c2nc3ccccc3[nH]2)sc(=S)n1-c1ccccc1 |  | > 100 µM |  | 70 µM |  | > 100 µM |  | > 100 µM |  |  |  | > 100 µM |  | > 100 µM |  | > 100 µM |  | > 100 µM |  | > 100 µM |
| CN(C)c1ccc2c3c(c(=O)oc2c1)CCC3 |  | > 100 µM |  | > 100 µM |  |  |  | > 100 µM |  | > 100 µM |  | > 100 µM |  | > 100 µM |  | > 100 µM |  | > 100 µM |  | > 100 µM |
| O=C(O)C12C3CCCC1C2CC3 (configuration not stated) |  | > 100 µM |  | > 100 µM |  | > 100 µM |  | > 100 µM |  |  |  | > 100 µM |  | > 100 µM |  | > 100 µM |  | > 100 µM |  | > 100 µM |
| O=C1OC2(c3ccccc3Oc3ccccc32)c2ccccc21 |  | > 100 µM |  | > 100 µM |  | > 100 µM |  | > 100 µM |  |  |  | > 100 µM |  | > 100 µM |  | > 100 µM |  | > 100 µM |  | > 100 µM |
| COC(=O)C1=C(O)C(O)=C(C(=O)OC)C1 |  | > 100 µM |  | > 100 µM |  | > 100 µM |  | > 100 µM |  |  |  | > 100 µM |  | > 100 µM |  | > 100 µM |  | > 100 µM |  | > 100 µM |
